For 26 molecules, IC50 and Ki results are on record in patent publication US20250213705A1, “PSMA TARGETING LIGANDS AND METHODS OF USE” (Bright Peak Therapeutics AG, priority 2023, published 2025).

For the assay, the target named is Recombinant Human PSMA/FOLH1 Protein (Homo sapiens (Human), UniProt Q04609). Description: Inhibition assay (Amplex Red glutamic acid/glutamate oxidase, NAAG substrate). Type of assay: biochemical. As to conditions: Target PSMA, average of N replicates; for IC50: PSMA 5 nM, NAAG 40 μM; for Ki: calculated based on Cheng-Prusoff equation. On the procedure: Amplex™ Red Glutamic Acid/Glutamate Oxidase Assay Kit Catalog number: A12221 (Thermofisher); Recombinant Human PSMA/FOLH1 Protein, CF (rnd systems); N-Acetyl-Asp-Glu (NAAG) (Sigma Aldrich; 96 well half area plate; Enspire plate reader.
Prepare a working solution of 100 μM Amplex® Red reagent containing 0.25 U/mL HRP, 0.08 U/mL L-glutamate oxidase, 0.5 U/mL 1-glutamate-pyruvate transaminase, 200 μM L-alanine and keep protected from light. […] Final concentration is 5 nM. Transfer 10 μl/well of the inhibitor solution previously prepared in a separate 96 wells/plate.
Pipette 20 μl/well of the working solution prepared above. Incubate the reactions for 30 min at 37° C., protected from light. Because the assay is continuous (not terminated), fluorescence may be measured at multiple time points to follow the kinetics of the reactions. Measure the fluorescence in a fluorescence microplate reader using excitation in the range of 530-560 nm and emission detection at ˜590 nm. Ec50s were determined with GraphPad Prism. Ki is calculated based on Cheng-Prusoff equation.

Numbered stars: 1 amine (or outer) side, 2 acyl side, 3 side chain; on linkers, the order of the positions; unused ones are H or OH. Square brackets hold non-standard residues; d marks the D form. Side chains are listed from the residue outwards. Peptide text beside a SMILES is read from it. 2Nal = N[C@@H](Cc1ccc2ccccc2c1)C(=O)O; Trx = NC[C@H]1CC[C@H](C(=O)O)CC1; PEG3 = NCCOCCOCCOCCC(=O)O; Dap = NC[C@H](N)C(=O)O; CO = O=C([*:1])[*:2]

Recombinant Human PSMA/FOLH1 Protein, sequence (Q04609 whole entry): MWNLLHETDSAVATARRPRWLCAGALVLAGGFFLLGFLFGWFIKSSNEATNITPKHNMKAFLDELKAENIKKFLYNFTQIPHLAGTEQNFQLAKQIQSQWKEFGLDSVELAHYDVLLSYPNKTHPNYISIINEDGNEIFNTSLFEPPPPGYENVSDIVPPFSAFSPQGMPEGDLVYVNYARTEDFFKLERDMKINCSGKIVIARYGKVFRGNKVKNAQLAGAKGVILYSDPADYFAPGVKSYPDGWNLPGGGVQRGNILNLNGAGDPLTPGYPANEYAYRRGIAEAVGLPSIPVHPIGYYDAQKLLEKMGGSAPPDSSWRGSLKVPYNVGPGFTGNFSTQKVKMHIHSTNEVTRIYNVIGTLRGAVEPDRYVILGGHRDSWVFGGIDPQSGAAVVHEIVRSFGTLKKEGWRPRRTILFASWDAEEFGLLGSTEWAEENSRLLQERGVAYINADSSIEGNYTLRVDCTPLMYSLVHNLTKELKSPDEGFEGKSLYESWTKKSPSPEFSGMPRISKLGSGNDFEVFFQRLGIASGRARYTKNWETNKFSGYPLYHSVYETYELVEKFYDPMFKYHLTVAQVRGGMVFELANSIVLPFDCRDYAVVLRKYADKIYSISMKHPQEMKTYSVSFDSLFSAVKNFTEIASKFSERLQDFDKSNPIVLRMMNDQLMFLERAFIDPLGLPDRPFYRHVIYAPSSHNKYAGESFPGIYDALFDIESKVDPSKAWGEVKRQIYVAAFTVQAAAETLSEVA

As for `CC(=O)NCCOCCOCCOCCC(=O)NC[C@H]1CC[C@H](C(=O)N[C@@H](Cc2ccc3ccccc3c2)C(=O)NCC(=O)N[C@@H](CNC(=O)N[C@@H](CCC(=O)O)C(=O)O)C(=O)O)CC1` [Compound 32] (Ac-[PEG3][Trx][2Nal]G[Dap]([CO-Glu])-OH), the IC50 is 434 µM and the Ki was 3100 nM.

Turning to `CC(=O)NCCOCCOCCOCCC(=O)NC[C@H]1CC[C@H](C(=O)N[C@@H](CCCC(=O)O)C(=O)NCCCC[C@H](NC(=O)N[C@@H](CCC(=O)O)C(=O)O)C(=O)O)CC1` [Compound 20], the concentration for half-maximal inhibition (IC50) is 1.49 µM and the Ki was 10.7 nM.

As for `CC(=O)NCCOCCOCCOCCC(=O)NC[C@H]1CC[C@H](C(=O)N[C@@H](Cc2ccc(F)cc2)C(=O)NCCCC[C@H](NC(=O)N[C@@H](CCC(=O)O)C(=O)O)C(=O)O)CC1` [Compound 13], the IC50 was 0.951 µM and the Ki is 6.8 nM.

As to `CC(=O)NCCOCCOCCOCCC(=O)N[C@@H](Cc1ccncc1)C(=O)NCC(=O)N[C@@H](Cc1ccc2ccccc2c1)C(=O)NCCCC[C@H](NC(=O)N[C@@H](CCC(=O)O)C(=O)O)C(=O)O` [Compound 85], the IC50 was 0.0106 µM and the Ki was 0.0759 nM.

With `CSCC[C@H](NC(=O)N[C@@H](CCCCNC(=O)[C@H](Cc1ccc2ccccc2c1)NC(=O)[C@H]1CC[C@H](CNC(=O)CCOCCOCCOCCNC(C)=O)CC1)C(=O)O)C(=O)O` [Compound 27], the IC50 amounted to 191 µM and the Ki is 1370 nM.

In the case of `CC(=O)NCCOCCOCCOCCC(=O)NC[C@H]1CC[C@H](C(=O)N[C@@H](Cc2ccc(O)cc2)C(=O)NCCCC[C@H](NC(=O)N[C@@H](CCC(=O)O)C(=O)O)C(=O)O)CC1` [Compound 3], the IC50 amounted to 0.421 µM and the inhibition constant (Ki) is 3.01 nM.

Take `CC(=O)NCCOCCOCCOCCC(=O)NC[C@H]1CC[C@H](C(=O)N[C@@H](Cc2ccc3ccccc3c2)C(=O)NCCCC[C@H](NC(=O)N[C@@H](Cc2cnc[nH]2)C(=O)O)C(=O)O)CC1` (stereo in doubt) [Compound 29]: the IC50 is 576 µM and the Ki was 4120 nM.

As to `CC(=O)NCCOCCOCCOCCC(=O)NC[C@H]1CC[C@H](C(=O)N[C@H](Cc2c[nH]cn2)C(=O)NCCCC[C@H](NC(=O)N[C@@H](CCC(=O)O)C(=O)O)C(=O)O)CC1` [Compound 42], the IC50 was 2.24 µM and the Ki was 16 nM.

Turning to `CC(=O)NCCOCCOCCOCCC(=O)NC[C@H]1CC[C@H](C(=O)N[C@@H](CC(C)C)C(=O)NCCCC[C@H](NC(=O)N[C@@H](CCC(=O)O)C(=O)O)C(=O)O)CC1` [Compound 1], the IC50 amounted to 2.39 µM and the Ki is 17.1 nM.

For the molecule `CC(=O)NCCOCCOCCOCCC(=O)NC[C@H]1CC[C@H](C(=O)N[C@@H](Cc2ccc3ccccc3c2)C(=O)NCCCC[C@H](NC(=O)N[C@@H](CC(C)C)C(=O)O)C(=O)O)CC1` [Compound 26], the IC50 is 1550 µM and the inhibitory constant (Ki) was 11000 nM.

`CC(=O)NCCOCCOCCOCCC(=O)NC[C@H]1CC[C@H](C(=O)N[C@@H](Cc2cn(C)cn2)C(=O)NCCCC[C@H](NC(=O)N[C@@H](CCC(=O)O)C(=O)O)C(=O)O)CC1` [Compound 11]: the IC50 turned out to be 3.24 µM and the Ki was 23.2 nM.

In the case of `CC(=O)NCCOCCOCCOCCC(=O)NC[C@H]1CC[C@H](C(=O)N[C@@H](CC2CCCCC2)C(=O)NCCCC[C@H](NC(=O)N[C@@H](CCC(=O)O)C(=O)O)C(=O)O)CC1` [Compound 19], the IC50 stood at 2.16 µM and the Ki was 15.4 nM.

For the molecule `CC(=O)NCCOCCOCCOCCC(=O)NC[C@H]1CC[C@H](C(=O)N[C@@H](CCCOc2cc(C#N)cc(C#N)c2)C(=O)NCCCC[C@H](NC(=O)N[C@@H](CCC(=O)O)C(=O)O)C(=O)O)CC1` [Compound 47], the IC50 was found to be 2.06 µM and the Ki is 14.7 nM.

Turning to `CC(=O)NCCOCCOCCOCCC(=O)NC[C@H]1CC[C@H](C(=O)N[C@H](CC(=O)NCCCC[C@H](NC(=O)N[C@@H](CCC(=O)O)C(=O)O)C(=O)O)Cc2ccccc2)CC1` [Compound 46], the IC50 is 0.446 µM and the Ki was 3.19 nM.

As for `CC(=O)NCCOCCOCCOCCC(=O)NC[C@H]1CC[C@H](C(=O)N[C@@H](Cc2ccc(N=[N+]=[N-])cc2)C(=O)NCCCC[C@H](NC(=O)N[C@@H](CCC(=O)O)C(=O)O)C(=O)O)CC1` [Compound 15], the IC50 was 0.935 µM and the Ki is 6.68 nM.

As to `CC(=O)NCCOCCOCCOCCC(=O)NC[C@H]1CC[C@H](C(=O)N[C@H](Cc2ccc(O)cc2)C(=O)NCCCC[C@H](NC(=O)N[C@@H](CCC(=O)O)C(=O)O)C(=O)O)CC1` [Compound 43], the IC50 worked out at 0.679 µM and the Ki is 4.86 nM.

For the molecule `CC(=O)NCCOCCOCCOCCC(=O)NC[C@H]1CC[C@H](C(=O)N[C@@H](C)C(=O)NCCCC[C@H](NC(=O)N[C@@H](CCC(=O)O)C(=O)O)C(=O)O)CC1` [Compound 4], the IC50 worked out at 0.537 µM and the Ki is 3.84 nM.

As for `CC(=O)NCCOCCOCCOCCC(=O)N[C@@H](CCCOc1cc(C#N)cc(C#N)c1)C(=O)N[C@@H](Cc1ccc2ccccc2c1)C(=O)NCCCC[C@H](NC(=O)N[C@@H](CCC(=O)O)C(=O)O)C(=O)O` [Compound 51], the IC50 turned out to be 1.71 µM and the Ki is 12.2 nM.

With `CC(=O)NCCOCCOCCOCCC(=O)NC[C@H]1CC[C@H](C(=O)N[C@@H](Cc2ccc3ccccc3c2)C(=O)NCCCC[C@H](NC(=O)N[C@@H](Cc2cccc(C(=O)O)c2)C(=O)O)C(=O)O)CC1` [Compound 30], the IC50 was 602 µM and the Ki is 4300 nM.

For the molecule `CC(=O)NCCOCCOCCOCCC(=O)NC[C@H]1CC[C@H](C(=O)N[C@@H](CCCCN)C(=O)NCCCC[C@H](NC(=O)N[C@@H](CCC(=O)O)C(=O)O)C(=O)O)CC1` [Compound 6], the IC50 is 58.2 µM and the Ki is 416 nM.

On to `CC(=O)NCCOCCOCCOCCC(=O)NC[C@H]1CC[C@H](C(=O)N[C@@H](Cc2ccncc2)C(=O)NCCCC[C@H](NC(=O)N[C@@H](CCC(=O)O)C(=O)O)C(=O)O)CC1` [Compound 44], for which the IC50 stood at 0.177 µM and the Ki was 1.27 nM.

As to `CC(=O)NCCOCCOCCOCCC(=O)NC[C@H]1CC[C@H](C(=O)N[C@@H](Cc2ccc3ccccc3c2)C(=O)NCCCC[C@H](NC(=O)N[C@@H](Cc2ccc(C(=O)O)cc2)C(=O)O)C(=O)O)CC1` [Compound 31], the IC50 came out at 260 µM and the Ki was 1860 nM.

On to `CC(=O)NCCOCCOCCOCCC(=O)NC[C@H]1CC[C@H](C(=O)N[C@@H](Cc2c[nH]c3ncccc23)C(=O)NCCCC[C@H](NC(=O)N[C@@H](CCC(=O)O)C(=O)O)C(=O)O)CC1` [Compound 22], for which the IC50 turned out to be 0.488 µM and the Ki is 3.49 nM.

In the case of `CC(=O)NCCOCCOCCOCCC(=O)NC[C@H]1CC[C@H](C(=O)N[C@@H](Cc2c[nH]cn2)C(=O)NCCCC[C@H](NC(=O)N[C@@H](CCC(=O)O)C(=O)O)C(=O)O)CC1` [Compound 9], the IC50 came to 1.08 µM and the Ki was 7.74 nM.

On to `CC(=O)NCCOCCOCCOCCC(=O)NC[C@H]1CC[C@H](C(=O)N[C@@H](Cc2ccc3ccccc3c2)C(=O)NCCCC[C@H](NC(=O)N[C@@H](Cc2ccc(O)cc2)C(=O)O)C(=O)O)CC1` [Compound 25], for which the IC50 came to 44.6 µM and the Ki is 319 nM.

As to `CC(=O)NCCOCCOCCOCCC(=O)NC[C@H]1CC[C@H](C(=O)N[C@H](Cc2ccccc2)C(=O)NCCCC[C@H](NC(=O)N[C@@H](CCC(=O)O)C(=O)O)C(=O)O)CC1` [Compound 18], the IC50 was determined as 0.54 µM and the Ki was 3.86 nM.

For orientation: IC50 means the concentration that inhibits the measured activity by half. Broadly, the Ki is the dissociation constant of the complex between target and ligand, obtained from inhibition or displacement.
